From patent US20050014767A1, “Benzoxazole, benzothiazole, and benzimidazole derivatives for the treatment of cancer and other diseases” (priority 2003, published 2005)
Entries after “also recorded” stand apart in the source; their conditions may differ.

What was measured:
PC-3 cells = experiment: MTT assay, prostate cancer cell line; type: cell-based, human; details: PC-3 prostate cancer cells; 1x10^-8 to 1x10^-5 M; FIG. 9
Text: (§1) Representative compounds of the invention were screened for anti-cancer activity by the procedures and methods described below. The following human cancer cell lines were used to detect anti-cancer activity. • The breast cancer cell line MDA-MB468 served to detect anti-breast cancer activity. • The prostate cancer cell line PC-3 was used to detect anti-prostate cancer activity • The non-small-cell lung cancer cell line A549 was used to detect anti-lung cancer activity • The pancreatic cancer cell line BX-PC-3 was used to detect anti-pancreatic cancer activity. • Cell lines were purchased from American Type Culture Collection (ATCC). Cell Culture conditions:
(§2) The cancer cell cultures were grown as recommended by the ATTC manuals. A549 cells and BX-PC-3 cells were grown in DME Dulbecco's modified Eagle's medium containing 4500 mg/L glucose; 4 mM L-glutamine; 10 U/ml Pen-G; 10 mcg/ml […] and 10% fetal calf serum (FCS). PC-3 and MDA-MB468 cells were grown in RPMI medium 1640 containing 2 mM L-glutamine; 10 U/ml Pen-G; 10 mcg/ml Streptomycin and 10% FCS. Cells were kept at 6% CO2 and 37° C. Cells were seeded on day zero in 96-well format tissue culture plates at suitable densities the day before starting treatment, in the media indicated above.
(§3) On day one, the compounds of the invention were added to the culture media of growing cells, containing 10% […]. The cell media contained the compounds of the invention at one of six concentrations: 1×10^−8, 5×10^−8, 1×10^−7, 5×10^−7, 1×10^−6, and 1×10^−5M. In control experiments, 0.1% DMSO was used as vehicle control, and never exceeded 0.1% final concentration. On day four the media was removed from the cells and replaced with fresh media containing the compounds of the invention and FCS at the appropriate concentrations.
(§4) On day five 10 μl of 5 mg/ml MTT dye was added to each well containing a cell culture. […] On day 6 the formazan crystals formed were solubilized and the resulting colored solution quantified using a scanning multiwell spectrophotometer at a wavelength of 595 nm. […]

BX-PC-3 cells = experiment: MTT assay, pancreatic cancer cell line; type: cell-based, human; details: BX-PC-3 pancreatic cancer cells; 1x10^-8 to 1x10^-5 M; FIG. 10
Text: as §1, §2, §3, §4

A549 cells = experiment: MTT assay, non-small-cell lung cancer cell line; type: cell-based, human; details: 1x10^-8 to 1x10^-5 M, FIG. 7
Text: as §1, §2, §3
On day five 10 μl of 5 mg/ml MTT dye was added to each well containing a cell culture. The MTT assay is based on the dehydrogenase activity in active mitochondria for cleavage of the yellow tetrazolium salt MTT to produce purple formazan crystals. This conversion of MTT only occurs in living cells with intact/functional mitochondria. After addition of MTT, the cells were incubated for additional 4 hours at 6% CO2 and 37° C. Reaction was then stopped by adding 100 μl/well of a solubilization solution consisting of 10% Sodium Dodecyl Sulfate (SDS) and 10 mM HCl. On day 6 the formazan crystals formed were solubilized and the resulting colored solution quantified using a scanning multiwell spectrophotometer at a wavelength of 595 nm.
The procedure of Example 21 was employed to measure the anti-cancer activity of compounds 1 & 2 of the invention and compare them with equivalent activity tests for Comparative Compound 4, whose synthesis is given in Example 4. […]

[1] = system: phosphorylated JNK proteins; experiment: Western Blot assay for JNK protein phosphorylation in H292 lung cancer cells; type: cell-based, human; details: 2.5 micromolar, 16 hours, FIG. 15
Method: Phosphorylated JNK proteins can be specifically detected by employing an antibody specific to phosphorylated JNK, followed by Western Blotting analysis. […] In particular, the human lung cancer cell line H292, purchased from the American Type Culture Collection (ATCC) (Manassas, Va.), was tested for JNK-activation induced by compounds 1, 2, 11, and 12 described herein.
H292 cells were grown in RPMI medium 1640 containing 2 mM L-glutamine; 10 U/ml Pen-G; 10 mcg/ml Streptomycin and 10% FCS.
Cells were kept at 6% CO2 and 37° C. H292 cells were plated at 70% confluence (adherent growing cells covering 70% of culture plate surface area) in a 10 centimeter tissue culture dish in the medium indicated above.
Compounds 1, 2, 11, and 12 were applied to cultures of the H292 cells in the medium indicated above at a concentration of 2.5 micromolar. DMSO (dimethyl sulfoxide, Sigma, St. Louis, Mo.) was used as vehicle control, and never exceeded 0.1% final concentration. Treatment was for 16 hours.
At the end of incubation of the cultured cells with the test compounds, the medium was removed and the plated cells were washed twice with cold PBS (phosphate buffer saline). Excess PBS was aspirated away and the cells were lysed and scraped into sample buffer containing 50 mM HEPES pH 7.5 (buffer), 150 mM NaCl, 0.1% Tween 20 (a detergent, Biorad, Hercules, Calif.), 20 mM NaF, 10 mcg/mL aprotinin, 10 mcg/mL leupeptin. Samples were incubated on ice for 15 minutes and insoluble material was pelleted by microfugation. Protein concentrations for each sample were determined using BSA (Bovine serum albumin, Sigma, St Louis, Mo.) as a standard in a colorimetric protein quantification assay (BioRad, Hercules, Calif.).
100 mcg of each sample of cellular lysate were subjected to electrophoresis on 12% SDS-PAGE (polyacrylamide gel electrophoresis) gels (BioRad, Hercules, Calif.). Proteins were transferred to PVDF membrane. Membranes were probed with a monoclonal antibody recognizing phosphorylated JNK (Cell Signaling, Beverly, Mass.) followed by HRP(horseradish peroxidase)-conjugated goat-anti-mouse antibody (Santa Cruz Biotechnology, Santa Cruz, Calif.). Immunoreative bands were visualized by ECL (enhanced chemiluminescence, Amersham, Buckinghanshire, England) detection on film (Kodak, Rochester, N.Y.).

MDA-MB468 cells = experiment: MTT assay, breast cancer cell line; type: cell-based, human; details: 1x10^-8 to 1x10^-5 M, FIG. 8
Text: as §1, §2, §3, §4

Row | SMILES | anti-cancer activity (MTT) (PC-3 cells) | anti-cancer activity (MTT) (BX-PC-3 cells) | anti-cancer activity (MTT) (A549 cells) | phosphorylation of JNK proteins (phospho-JNK bands) [1] | anti-cancer activity (MTT) (MDA-MB468 cells) | melting point [°C]
1 | Cc1nc2cc(-c3ccc(/C=C4\SC(=O)NC4=O)cn3)cc(C34CC5CC(CC(C5)C3)C4)c2o1 [Compound 1, 5-[6-(7-Adamantan-1-yl-2-methyl-benzoxazol-5-yl)-pyridin-3-ylmethylene]-thiazolidine-2,4-dione] | consistent and potent anti-cancer activity at low concentrations | consistent and potent anti-cancer activity at low concentrations | consistent and potent anti-cancer activity at low concentrations | results in the production of phosphorylated JNK proteins; also recorded: induced the phosphorylation of JNK proteins; also recorded: potent activators of the phosphorylation of JNK proteins | consistent and potent anti-cancer activity at low concentrations | –
2 | O=C1NC(=O)/C(=C/c2ccc(-c3cc(C45CC6CC(CC(C6)C4)C5)c4ocnc4c3)nc2)S1 [Compound 2, 5-[6-(7-Adamantan-1-yl-benzoxazol-5-yl)-pyridin-3-ylmethylene]-thiazolidine-2,4-dione] | consistent and potent anti-cancer activity at low concentrations | consistent and potent anti-cancer activity at low concentrations | consistent and potent anti-cancer activity at low concentrations | results in the production of phosphorylated JNK proteins; also recorded: induced the phosphorylation of JNK proteins; also recorded: potent activators of the phosphorylation of JNK proteins | consistent and potent anti-cancer activity at low concentrations | –
3 | Cc1nc2cc(-c3ccc(/C=C4\SC(=O)NC4=O)cn3)cc(C3CCCCC3)c2o1 [Compound 11, 5-[6-(7-Cyclohexyl-2-methyl-benzoxazol-5-yl)-pyridin-3-ylmethylene]-thiazolidine-2,4-dione] | – | – | only relatively weak activity | only weakly induced the phosphorylation of JNK proteins | – | 314 to 316
4 | O=C1NC(=O)/C(=C/c2ccc(-c3cc(C4CCCCC4)c4ocnc4c3)nc2)S1 [Compound 12, 5-[6-(7-Cyclohexyl-benzoxazol-5-yl)-pyridin-3-ylmethylene]-thiazolidine-2,4-dione] | – | – | – | results in the production of phosphorylated JNK proteins; also recorded: activates the phosphorylation of JNK proteins, though perhaps less potently than compound 1 or 2 | – | –
5 | Nc1nc2cc(-c3ccc(/C=C4\SC(=O)NC4=O)cn3)cc(C34CC5CC(CC(C5)C3)C4)c2o1 [Compound 14, 5-[6-(7-Adamantan-1-yl-2-amino-benzoxazol-5-yl)-pyridin-3-ylmethylene]-thiazolidine-2,4-dione] | consistent and potent anti-cancer activity at low concentrations | consistent and potent anti-cancer activity at low concentrations | consistent and potent anti-cancer activity at low concentrations | – | consistent and potent anti-cancer activity at low concentrations | –
